Experimental data published in patent publication US20230143604A1, “QW DOSING OF GIP RECEPTOR AGONIST PEPTIDE COMPOUNDS AND USES THEREOF” (TAKEDA PHARMACEUTICAL COMPANY LIMITED, priority 2020, published 2023).
Where two headings read alike, the source gives them in different places. Positions of bridges follow the written chain, without caps; N, C: chain ends. Non-standard residues stand in square brackets, D forms with d. Chains are numbered I, II in the order given. *: point of attachment. C18 diacid = O=C(O)CCCCCCCCCCCCCCCCC(=O)*; NMeY = CN[C@@H](Cc1ccc(O)cc1)C(=O)O; Aib = CC(C)(N)C(=O)O

Key:
[1] = biological target: T1, human GLP-1R (Homo sapiens, UniProt P43220); experiment: Human GLP1R agonist activity, intracellular cAMP accumulation; assay type: cell-based; conditions: HEK-293T cells overexpressing human GLP-1R, 1 hr
T1 construct: HEK-293T cells overexpressing full-length human GLP-1R; FLAG (N); host or cells: HEK-293T
Summary of the method: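 cAMP accumulation is measured by HTRF after a 1 hr, room-temperature, dark exposure of thawed cells (4×10^5 cells/mL in Krebs Ringer buffer) to compound. Activity is scaled between DMSO alone as 0% and 1 nm GLP-1 as 100%.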

[2] = test system: C57BL/6J mice; experiment: Oral glucose tolerance test (OGTT); assay type: in vivo; conditions: 3 nmol/kg s.c., 24 hours before glucose loading
Summary of the method: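 Peptide or vehicle given s.c. at 0.1, 0.3, 3 or 10 nmol/kg (peptide-dependent), 24 h before oral 50% dextrose at 5 ml/kg unless stated otherwise. Blood glucose read at 0, 15, 30 and 60 min. % inhibition = (1−(AUC cpd−AUC naïve)/(AUC veh−AUC naïve))×100.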

[3] = physchem
Summary of the method: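 Solubility at pH 7.4 determined by stepwise addition of 200 mM phosphate buffer in 100 μL increments to 3 mg peptide, mixing briefly each time, until no insoluble material remained, then measured by liquid chromatography.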

[4] = read-out: Human GLP1R cAMP EC50, HEK293T

T1 sequence (P43220 24-463): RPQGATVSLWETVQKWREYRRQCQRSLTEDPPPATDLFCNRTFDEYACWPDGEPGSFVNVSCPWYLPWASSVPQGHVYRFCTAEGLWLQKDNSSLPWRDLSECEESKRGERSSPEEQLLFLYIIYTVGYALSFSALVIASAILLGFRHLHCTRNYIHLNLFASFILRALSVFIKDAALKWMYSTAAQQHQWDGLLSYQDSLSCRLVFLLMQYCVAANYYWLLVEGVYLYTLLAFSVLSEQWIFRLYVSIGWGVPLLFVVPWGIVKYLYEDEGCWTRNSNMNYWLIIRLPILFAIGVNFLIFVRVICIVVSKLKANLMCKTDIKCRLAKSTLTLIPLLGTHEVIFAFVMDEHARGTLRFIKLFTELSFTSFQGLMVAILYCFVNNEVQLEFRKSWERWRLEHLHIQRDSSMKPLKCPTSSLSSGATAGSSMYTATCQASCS

Compound | EC50 [1, 4] [nM] | Oral Glucose Tolerance Test Percent decrease in blood glucose AUC (%) over 60 mins [2] | solubility ([3]; pH 7.4) [mg/mL] | solubility ([3]; pH 7.4, aqueous buffer) [mg/mL] | EC50 ([1]; Human GLP1R cAMP EC50, HEK293T (nM)) [nM] | solubility ([3]; pH 7.4, aqueous buffer, pH 7.4 Phosphate Buffer - Solubility, 200 mM Phosphate buffer pH 7.4) [mg/mL] | solubility ([3]; pH 7.4, solubility in phosphate buffer at pH 7.4, 200 mM phosphate buffer pH 7.4) [mg/mL]
CC[C@H](C)[C@H](NC(=O)[C@H](Cc1ccccc1)NC(=O)[C@@H](NC(=O)CNC(=O)[C@H](CCC(=O)O)NC(=O)C(C)(C)NC(=O)[C@H](Cc1ccc(O)cc1)NC)[C@@H](C)O)C(=O)N[C@@H](CO)C(=O)N[C@@H](CC(=O)O)C(=O)N[C@@H](Cc1ccc(O)cc1)C(=O)N[C@@H](CO)C(=O)N[C@H](C(=O)NC(C)(C)C(=O)N[C@@H](CCCCNC(=O)CNC(=O)CNC(=O)CNC(=O)CNC(=O)CNC(=O)CCCCCCCCCCCCCCCCC(=O)O)C(=O)N[C@@H](CC(=O)O)C(=O)N[C@@H](CCCNC(=N)N)C(=O)NC(C)(C)C(=O)N[C@@H](C)C(=O)N[C@@H](CCC(N)=O)C(=O)NC(C)(C)C(=O)N[C@@H](CC(=O)O)C(=O)N[C@@H](Cc1ccccc1)C(=O)N[C@H](C(=O)N[C@@H](CC(N)=O)C(=O)N[C@@H](Cc1c[nH]c2ccccc12)C(=O)N[C@@H](CC(C)C)C(=O)N[C@@H](CC(C)C)C(=O)N[C@@H](C)C(=O)N[C@@H](CCC(N)=O)C(=O)N[C@@H](CO)C(=O)N1CCC[C@H]1C(=O)NCC(=O)O)C(C)C)[C@@H](C)CC [Compound 83] | 66.1 | 68% (3 nmol/kg) | ≥ 15 | ≥ 30 | – | – | –
CC[C@H](C)[C@H](NC(=O)[C@H](Cc1ccccc1)NC(=O)[C@@H](NC(=O)CNC(=O)[C@H](CCC(=O)O)NC(=O)C(C)(C)NC(=O)[C@H](Cc1ccc(O)cc1)NC)[C@@H](C)O)C(=O)N[C@@H](CO)C(=O)N[C@@H](CC(=O)O)C(=O)N[C@@H](Cc1ccc(O)cc1)C(=O)N[C@@H](CO)C(=O)N[C@H](C(=O)NC(C)(C)C(=O)N[C@@H](CC(C)C)C(=O)N[C@@H](CC(=O)O)C(=O)N[C@@H](CCCNC(=N)N)C(=O)N[C@@H](CCCCNC(=O)CNC(=O)CNC(=O)CNC(=O)CNC(=O)CNC(=O)CCCCCCCCCCCCCCCCC(=O)O)C(=O)N[C@@H](C)C(=O)N[C@@H](CCC(N)=O)C(=O)NC(C)(C)C(=O)N[C@@H](CC(=O)O)C(=O)N[C@@H](Cc1ccccc1)C(=O)N[C@H](C(=O)N[C@@H](CC(N)=O)C(=O)N[C@@H](Cc1c[nH]c2ccccc12)C(=O)N[C@@H](CC(C)C)C(=O)N[C@@H](CC(C)C)C(=O)N[C@@H](C)C(=O)N[C@@H](CCC(N)=O)C(=O)N[C@@H](CO)C(=O)N1CCC[C@H]1C(=O)NCC(=O)O)C(C)C)[C@@H](C)CC [Compound 88] | 13.5 | 64% (3 nmol/kg) | ≥ 15 | ≥ 30 | – | – | –
CC[C@H](C)[C@H](NC(=O)[C@H](CO)NC(=O)[C@H](Cc1ccc(O)cc1)NC(=O)[C@H](CC(=O)O)NC(=O)[C@H](CO)NC(=O)[C@@H](NC(=O)[C@H](Cc1ccccc1)NC(=O)[C@@H](NC(=O)CNC(=O)[C@H](CCC(=O)O)NC(=O)C(C)(C)NC(=O)[C@H](Cc1ccc(O)cc1)NC)[C@@H](C)O)[C@@H](C)CC)C(=O)N[C@@H](C)C(=O)N[C@@H](CCCCNC(=O)CNC(=O)CNC(=O)CNC(=O)CNC(=O)CNC(=O)CCCCCCCCCCCCCCCCC(=O)O)C(=O)N[C@@H](CC(=O)O)C(=O)N[C@@H](CCCNC(=N)N)C(=O)NC(C)(C)C(=O)N[C@@H](C)C(=O)N[C@@H](CCC(N)=O)C(=O)NC(C)(C)C(=O)N[C@@H](CC(N)=O)C(=O)N[C@@H](Cc1ccccc1)C(=O)N[C@H](C(=O)N[C@@H](CC(N)=O)C(=O)N[C@@H](Cc1c[nH]c2ccccc12)C(=O)N[C@@H](CC(C)C)C(=O)N[C@@H](CC(C)C)C(=O)N[C@@H](C)C(=O)N[C@@H](CCC(N)=O)C(=O)N[C@@H](CO)C(=O)N1CCC[C@H]1C(=O)NCC(=O)O)C(C)C [Compound 114] | 11.7 | 50% (3 nmol/kg) | ≥ 15 | ≥ 30 | – | – | –
CC[C@H](C)[C@H](NC(=O)[C@H](CO)NC(=O)[C@H](Cc1ccc(O)cc1)NC(=O)[C@H](CC(=O)O)NC(=O)[C@H](CO)NC(=O)[C@@H](NC(=O)[C@H](Cc1ccccc1)NC(=O)[C@@H](NC(=O)CNC(=O)[C@H](CCC(=O)O)NC(=O)C(C)(C)NC(=O)[C@H](Cc1ccc(O)cc1)NC)[C@@H](C)O)[C@@H](C)CC)C(=O)N[C@@H](C)C(=O)N[C@@H](CC(C)C)C(=O)N[C@@H](CC(=O)O)C(=O)N[C@@H](CCCNC(=N)N)C(=O)N[C@@H](CCCCNC(=O)CNC(=O)CNC(=O)CNC(=O)CNC(=O)CNC(=O)CCCCCCCCCCCCCCCCC(=O)O)C(=O)N[C@@H](C)C(=O)N[C@@H](CCC(N)=O)C(=O)NC(C)(C)C(=O)N[C@@H](CC(=O)O)C(=O)N[C@@H](Cc1ccccc1)C(=O)N[C@H](C(=O)N[C@@H](CCC(=O)O)C(=O)N[C@@H](Cc1c[nH]c2ccccc12)C(=O)N[C@@H](CC(C)C)C(=O)N[C@@H](CC(C)C)C(=O)N[C@@H](C)C(=O)N[C@@H](CCC(N)=O)C(=O)N[C@@H](CCCNC(=N)N)C(=O)NCC(=O)O)C(C)C [Compound 115] | 40.7 | 40% (3 nmol/kg) | ≥ 15 | ≥ 30 | – | – | –
CC[C@H](C)[C@H](NC(=O)[C@H](Cc1ccccc1)NC(=O)[C@@H](NC(=O)CNC(=O)[C@H](CCC(=O)O)NC(=O)C(C)(C)NC(=O)[C@@H](N)Cc1ccc(O)cc1)[C@@H](C)O)C(=O)N[C@@H](CO)C(=O)N[C@@H](CC(=O)O)C(=O)N[C@@H](Cc1ccc(O)cc1)C(=O)N[C@@H](CO)C(=O)N[C@H](C(=O)NC(C)(C)C(=O)N[C@@H](CCCCNC(=O)CNC(=O)CNC(=O)CNC(=O)CNC(=O)CNC(=O)CCCCCCCCCCCCCCCCC(=O)O)C(=O)N[C@@H](CC(=O)O)C(=O)N[C@@H](CCCNC(=N)N)C(=O)NC(C)(C)C(=O)N[C@@H](C)C(=O)N[C@@H](CCC(N)=O)C(=O)NC(C)(C)C(=O)N[C@@H](CC(=O)O)C(=O)N[C@@H](Cc1ccccc1)C(=O)N[C@H](C(=O)N[C@@H](CCC(=O)O)C(=O)N[C@@H](Cc1c[nH]c2ccccc12)C(=O)N[C@@H](CC(C)C)C(=O)N[C@@H](CC(C)C)C(=O)N[C@@H](C)C(=O)N[C@@H](CCC(N)=O)C(=O)N[C@@H](CCCNC(=N)N)C(=O)NCC(=O)O)C(C)C)[C@@H](C)CC [Compound 139] | 8.91 | 93% (3 nmol/kg) | ≥ 15 | ≥ 30 | – | – | –
CC[C@H](C)[C@H](NC(=O)[C@H](Cc1ccccc1)NC(=O)[C@@H](NC(=O)CNC(=O)[C@H](CCC(=O)O)NC(=O)C(C)(C)NC(=O)[C@@H](N)Cc1ccc(O)cc1)[C@@H](C)O)C(=O)N[C@@H](CO)C(=O)N[C@@H](CC(=O)O)C(=O)N[C@@H](Cc1ccc(O)cc1)C(=O)N[C@@H](CO)C(=O)N[C@H](C(=O)NC(C)(C)C(=O)N[C@@H](CCCCNC(=O)CNC(=O)CNC(=O)CNC(=O)CNC(=O)CNC(=O)CCCCCCCCCCCCCCCCC(=O)O)C(=O)N[C@@H](CC(=O)O)C(=O)N[C@@H](CCCNC(=N)N)C(=O)N[C@@H](C)C(=O)N[C@@H](C)C(=O)N[C@@H](CCC(N)=O)C(=O)NC(C)(C)C(=O)N[C@@H](CC(=O)O)C(=O)N[C@@H](Cc1ccccc1)C(=O)N[C@H](C(=O)N[C@@H](CCC(=O)O)C(=O)N[C@@H](Cc1c[nH]c2ccccc12)C(=O)N[C@@H](CC(C)C)C(=O)N[C@@H](CC(C)C)C(=O)N[C@@H](C)C(=O)N[C@@H](CCC(N)=O)C(=O)N[C@@H](CCCNC(=N)N)C(=O)NCC(=O)O)C(C)C)[C@@H](C)CC [Compound 145] | 9.33 | 52% (3 nmol/kg) | ≥ 15 | ≥ 30 | – | – | –
CC[C@H](C)[C@H](NC(=O)[C@H](CO)NC(=O)[C@H](Cc1ccc(O)cc1)NC(=O)[C@H](CC(=O)O)NC(=O)[C@H](CO)NC(=O)[C@@H](NC(=O)[C@H](Cc1ccccc1)NC(=O)[C@@H](NC(=O)CNC(=O)[C@H](CCC(=O)O)NC(=O)C(C)(C)NC(=O)[C@@H](N)Cc1ccc(O)cc1)[C@@H](C)O)[C@@H](C)CC)C(=O)N[C@@H](C)C(=O)N[C@@H](CCCCNC(=O)CNC(=O)CNC(=O)CNC(=O)CNC(=O)CNC(=O)CCCCCCCCCCCCCCCCC(=O)O)C(=O)N[C@@H](CC(=O)O)C(=O)N[C@@H](CCCNC(=N)N)C(=O)NC(C)(C)C(=O)N[C@@H](C)C(=O)N[C@@H](CCC(N)=O)C(=O)N[C@@H](C)C(=O)N[C@@H](CC(=O)O)C(=O)N[C@@H](Cc1ccccc1)C(=O)N[C@H](C(=O)N[C@@H](CCC(=O)O)C(=O)N[C@@H](Cc1c[nH]c2ccccc12)C(=O)N[C@@H](CC(C)C)C(=O)N[C@@H](CC(C)C)C(=O)N[C@@H](C)C(=O)N[C@@H](CCC(N)=O)C(=O)N[C@@H](CCCNC(=N)N)C(=O)NCC(=O)O)C(C)C [Compound 149] | 15.8 | 13% (3 nmol/kg) | ≥ 15 | ≥ 30 | – | – | –
I: H-[NMeY][Aib]EGTFISDYSIAKDR[Aib]AQ[Aib]DFVNWLLAQSPSSGAPPPS-OH / II: {C18 diacid}-PAPAPGG (amide I:14-II:C) [Compound 105] | – | 82% (3 nmol/kg) | – | – | 562 | ≥ 60 | ≥ 15
